Reference: the NIST ThermoML archive (doi:10.1021/je0501843)

Assay: wn = mass fraction of the nth substance listed
Details: Fluid (supercritical or subcritical phases), isochoric method, w1 = 0.5001

FC(F)C(F)(F)F [pentafluoroethane] + FCF
Details | mass density [kg/m3]
363 K, 13894 kPa | 858.1
364 K, 6970 kPa | 475.8
364 K, 7223 kPa | 525.7
364 K, 7494 kPa | 571.2
364 K, 7828 kPa | 614.6
364 K, 10192 kPa | 760.2
364 K, 14207 kPa | 858
365 K, 7077 kPa | 475.8
365 K, 7344 kPa | 525.7
365 K, 7632 kPa | 571.2
365 K, 7982 kPa | 614.6
365 K, 10427 kPa | 760.1
365 K, 14520 kPa | 857.9
366 K, 7184 kPa | 475.8
366 K, 7465 kPa | 525.6
366 K, 7771 kPa | 571.1
366 K, 8137 kPa | 614.5
366 K, 10664 kPa | 760
366 K, 14835 kPa | 857.8
367 K, 7291 kPa | 475.8
367 K, 7587 kPa | 525.6
367 K, 7907 kPa | 571.1
367 K, 8294 kPa | 614.5
367 K, 10900 kPa | 760
367 K, 15148 kPa | 857.7
368 K, 7397 kPa | 475.8
368 K, 7708 kPa | 525.6
368 K, 8044 kPa | 571.1
368 K, 8449 kPa | 614.5
368 K, 11133 kPa | 759.9
368 K, 15462 kPa | 857.7
369 K, 7504 kPa | 475.7
369 K, 7831 kPa | 525.6
369 K, 8183 kPa | 571
369 K, 8605 kPa | 614.4
369 K, 11369 kPa | 759.9
369 K, 15777 kPa | 857.6
370 K, 7612 kPa | 475.7
370 K, 7953 kPa | 525.5
370 K, 8323 kPa | 571
370 K, 8762 kPa | 614.4
370 K, 11608 kPa | 759.8
370 K, 16094 kPa | 857.5
371 K, 7719 kPa | 475.7
371 K, 8075 kPa | 525.5
371 K, 8460 kPa | 571
371 K, 8917 kPa | 614.3
371 K, 11844 kPa | 759.7
371 K, 16410 kPa | 857.4
372 K, 7825 kPa | 475.7
372 K, 8198 kPa | 525.5
372 K, 8601 kPa | 571
372 K, 9073 kPa | 614.3
372 K, 12081 kPa | 759.7
372 K, 16724 kPa | 857.4
373 K, 7931 kPa | 475.7
373 K, 8321 kPa | 525.5
373 K, 8740 kPa | 570.9
373 K, 9230 kPa | 614.3
373 K, 12318 kPa | 759.6
373 K, 17037 kPa | 857.3
374 K, 8039 kPa | 475.6
374 K, 8445 kPa | 525.4
374 K, 8878 kPa | 570.9
374 K, 9389 kPa | 614.2
374 K, 12556 kPa | 759.6
374 K, 17355 kPa | 857.2
375 K, 8147 kPa | 475.6
375 K, 8567 kPa | 525.4
375 K, 9016 kPa | 570.9
375 K, 9544 kPa | 614.2
375 K, 12795 kPa | 759.5
375 K, 17669 kPa | 857.1
376 K, 8254 kPa | 475.6
376 K, 8690 kPa | 525.4
376 K, 9155 kPa | 570.8
376 K, 9701 kPa | 614.2
376 K, 13033 kPa | 759.5
376 K, 17984 kPa | 857.1
377 K, 8362 kPa | 475.6
377 K, 8813 kPa | 525.4
377 K, 9295 kPa | 570.8
377 K, 9858 kPa | 614.1
377 K, 13272 kPa | 759.4
377 K, 18301 kPa | 857
378 K, 8469 kPa | 475.6
378 K, 8937 kPa | 525.3
378 K, 9437 kPa | 570.8
378 K, 10018 kPa | 614.1
378 K, 13511 kPa | 759.3
378 K, 18619 kPa | 856.9
379 K, 8575 kPa | 475.5
379 K, 9060 kPa | 525.3
379 K, 9576 kPa | 570.7
379 K, 10174 kPa | 614
379 K, 13747 kPa | 759.3
379 K, 18935 kPa | 856.8
380 K, 8683 kPa | 475.5
